Each compound was assayed on histamine H1-receptor (assay: inhibition of histamine induced bronchoconstriction in vivo). Conditions: anaesthetised guinea pigs, intravenous injection, histamine dose-response curve 5 minutes later.
Set-up: species or system guinea pig
Procedure: Guinea pigs of either sex are anaesthetised by intraperitoneal injection of sodium pentobarbitone, 90 mg/kg. The trachea is cannulated. The animal is respired artificially with a fixed volume of air just adequate to inflate the lungs. The pressure needed to inflate the lungs is monitored from the respiratory system using a low pressure transducer. Intravenous injection of histamine causes dose-dependent increases in the pressure to inflate the lungs reflecting the bronchoconstrictor action of histamine. Responses to histamine can be antagonised using histamine H1 -receptor antagonists.
Dose-response curves to histamine are established at 20, 40, 80, 160 and 320 nmols/kg. Antagonists are then administered by intravenous injection and 5 minutes later a new histamine dose-response curve is established increasing the doses of histamine as necessary. The effect of the antagonist can be quantified by the displacement, to the right, of the histamine dose-response curve, expressed as a dose-ratio. A series of doses of antagonists may be given to each animal allowing calculation of dose-ratios for each dose of antagonist. For the compounds of Examples 1, 2 and 4, the doses (μmol/kg) required to give a dose ratio of 11 ((DR-1)=10) are 0.022, 0.06 and 0.0048 respectively.

| SMILES | dose required to give a dose ratio of 11 ((DR-1)=10) |
| --- | --- |
| O=c1nc(NCCCC2CCCc3cccnc32)[nH]cc1Cc1cc[n+]([O-])cc1 (stereo not drawn) [Example 1, 2-[3-(5,6,7,8-Tetrahydroquinol-8-yl)propylamino]-5-[1-oxopyrid-4-ylmethyl]-4(1H)-pyrimidone] | 0.022 µmol/kg |
| Cc1ccc(Cc2c[nH]c(NCCCC3CCCc4cccnc43)nc2=O)cn1 (stereo not drawn) [Example 2, 2-[3-(5,6,7,8-Tetrahydroquinol-8-yl)propylamino]-5-(6-methylpyrid-3-ylmethyl)-4(1H)-pyrimidone] | 0.06 µmol/kg |
| O=c1nc(NCCCC2CCCc3cccnc32)[nH]cc1Cc1ccc(CO)nc1 (stereo not drawn) [Example 4, 2-[3-(5,6,7,8-Tetrahydroquinol-8-yl)propylamino]-5-(6-hydroxymethylpyrid-3-ylmethyl)-4(1H)-pyrimidone] | 0.0048 µmol/kg |
